According to ChEMBL document CHEMBL1139752, “New rifabutin analogs: synthesis and biological activity against Mycobacterium tuberculosis” (2006):
≈ marks a conversion by molar mass, not a printed value.

Experiments:
Assay type in all cases: functional
[1] = test system: Mycobacterium tuberculosis; assay: Antimycobacterial activity against Mycobacterium tuberculosis H37 Rv ATCC 27294
[2] = test system: Mycobacterium tuberculosis; assay: Antimycobacterial activity against rifampicin and rifabutin sensitive Mycobacterium tuberculosis
Mycobacterium avium = assay: Antimycobacterial activity against Mycobacterium avium-intracellulare complex measured as susceptibility at 1 ug/mL
Mycobacterium kansasii = assay: Antimycobacterial activity against Mycobacterium kansasii measured as susceptibility at 1 ug/mL

| Structure (SMILES) | MIC [1] [µg/mL] | MIC [2] [µg/mL] | Activity (Mycobacterium avium) | Activity (Mycobacterium kansasii) [%] |
| --- | --- | --- | --- | --- |
| CCCCN1[C@@H](c2ccccc2)C[C@@]2(C[C@H]1c1ccccc1)N=C1C(=C3NC(=O)/C(C)=C\C=C\[C@H](C)[C@H](O)[C@@H](C)[C@H](O)[C@H](C)[C@H](OC(C)=O)[C@H](C)[C@@H](OC)/C=C/O[C@@]4(C)Oc5c(C)c(O)c(c1c5C4=O)C3=O)N2 | 0.02 (≈ 0.02 µM) | 0.02 (≈ 0.02 µM) | 40% | 100 |
| COc1ccc([C@@H]2C[C@]3(C[C@H](c4ccc(OC)cc4)N2)N=C2C(=C4NC(=O)/C(C)=C\C=C\[C@H](C)[C@H](O)[C@@H](C)[C@H](O)[C@H](C)[C@H](OC(C)=O)[C@H](C)[C@@H](OC)/C=C/O[C@@]5(C)Oc6c(C)c(O)c(c2c6C5=O)C4=O)N3)cc1 | 0.02 (≈ 0.0199 µM) | 0.02 (≈ 0.0199 µM) | 60% | 100 |
| CO[C@H]1/C=C/O[C@@]2(C)Oc3c(C)c(O)c4c(c3C2=O)C2=N[C@@]3(C[C@@H](c5ccccc5)N[C@@H](c5ccccc5)C3)NC2=C(NC(=O)/C(C)=C\C=C\[C@H](C)[C@H](O)[C@@H](C)[C@H](O)[C@H](C)[C@H](OC(C)=O)[C@@H]1C)C4=O | 0.02 (≈ 0.0212 µM) | 0.02 (≈ 0.0212 µM) | 100% | 100 |
| C=CCN1[C@@H](c2ccccc2)C[C@@]2(C[C@H]1c1ccccc1)N=C1C(=C3NC(=O)/C(C)=C\C=C\[C@H](C)[C@H](O)[C@@H](C)[C@H](O)[C@H](C)[C@H](OC(C)=O)[C@H](C)[C@@H](OC)/C=C/O[C@@]4(C)Oc5c(C)c(O)c(c1c5C4=O)C3=O)N2 | 0.02 (≈ 0.0203 µM) | 0.02 (≈ 0.0203 µM) | <=40% | 100 |
| CO[C@H]1/C=C/O[C@@]2(C)Oc3c(C)c(O)c4c(c3C2=O)C2=N[C@]3(C[C@@H](c5ccccc5)N[C@@H](c5ccccc5)C3)NC2=C(NC(=O)/C(C)=C\C=C\[C@H](C)[C@H](O)[C@@H](C)[C@H](O)[C@H](C)[C@H](OC(C)=O)[C@@H]1C)C4=O | 0.02 (≈ 0.0212 µM) | 0.02 (≈ 0.0212 µM) | 100% | 100 |
| CO[C@H]1/C=C/O[C@@]2(C)Oc3c(C)c(O)c4c(c3C2=O)C2=N[C@@]3(C[C@@H](c5ccc(F)cc5)N[C@@H](c5ccc(F)cc5)C3)NC2=C(NC(=O)/C(C)=C\C=C\[C@H](C)[C@H](O)[C@@H](C)[C@H](O)[C@H](C)[C@H](OC(C)=O)[C@@H]1C)C4=O | 0.02 (≈ 0.0204 µM) | 0.02 (≈ 0.0204 µM) | 100% | 100 |
| C=CCCN1[C@@H](c2ccccc2)C[C@@]2(C[C@H]1c1ccccc1)N=C1C(=C3NC(=O)/C(C)=C\C=C\[C@H](C)[C@H](O)[C@@H](C)[C@H](O)[C@H](C)[C@H](OC(C)=O)[C@H](C)[C@@H](OC)/C=C/O[C@@]4(C)Oc5c(C)c(O)c(c1c5C4=O)C3=O)N2 | 0.02 (≈ 0.0201 µM) | 0.02 (≈ 0.0201 µM) | 80% | 100 |
| CO[C@H]1/C=C/O[C@@]2(C)Oc3c(C)c(O)c4c(c3C2=O)C2=NC3(CCN(CC(C)C)CC3)NC2=C(NC(=O)/C(C)=C\C=C\[C@H](C)[C@H](O)[C@@H](C)[C@@H](O)[C@@H](C)[C@H](OC(C)=O)[C@@H]1C)C4=O [RIFABUTIN] | 0.02 (≈ 0.0236 µM) | 0.02 (≈ 0.0236 µM) | 20% | 100 |
| CO[C@H]1/C=C/O[C@@]2(C)Oc3c(C)c(O)c4c(O)c(c(/C=N/N5CCN(C)CC5)c(O)c4c3C2=O)NC(=O)/C(C)=C\C=C\[C@H](C)[C@H](O)[C@@H](C)[C@@H](O)[C@@H](C)[C@H](OC(C)=O)[C@@H]1C [RIFAMPIN] | 0.02 (≈ 0.0243 µM) | 0.02 (≈ 0.0243 µM) | 0% | 100 |
